Test results from paper PMC10303846, “In vitro antiplasmodial activity and toxicological profile of extracts, fractions and chemical constituents of leaves and stem bark from Dacryodes edulis (Burseraceae)” (BMC Complementary Medicine and Therapies, 2023).
Values after ≈ are worked out from the molar mass of the structure shown. Like-named read-outs stand apart in the source and are kept apart here.

Legend:
[1] = Resazurin-based in vitro cytotoxicity assay; format: cell-based; conditions: mouse
Experimental: The cytotoxicity profile of extracts, fractions and isolated compounds was assessed using the resazurin-based assay essentially as previously described against RAW 264.7 cells duly cultivated in complete Dulbecco′s Modified Eagle′s Medium (DMEM) that contain 13.5 g/L of DMEM (Sigma Aldrich), 10% fetal bovine serum (Sigma Aldrich), 0.2% sodium bicarbonate (w/v) (Sigma Aldrich) and 50 μg/mL of gentamicin (Sigma Aldrich). Globally, macrophages (Raw cells) were seeded into 96-well cell-culture flat-bottomed plates at a density of 10^4 cells in 100 μL of complete medium/well and placed in incubation for 24 h at 37℃, and 5% CO2 allowing cell adhesion. Following cell adhesion, ten microliters of each serially diluted test sample solution was added to assay plates and left in incubation for 48 h under the same experimental conditions. Growth control (1% DMSO-100% growth) and positive control wells (podophyllotoxin at 20 μM) were included in the experimental plates. Cell proliferation was checked by adding 10 μL of a stock solution of resazurin (0.15 mg/mL in sterile PBS) to each well followed by an additional incubation of 4 h in the same culture conditions. Fluorescence was then read using Tecan Infinite M200 fluorescence multiwell plate reader (Tecan) at an excitation/emission of 530/590 nm. The results were expressed as 50% cytotoxic concentrations (CC50) and selectivity indices (CC50 Mammalian cell/IC50 Pf3D7) were calculated for each test substance.

[2] = test system: chloroquine-resistant (multidrug-resistant) PfDd2 (MRA-150) P. falciparum strain; assay: SYBR green I-based fluorescence P. falciparum growth inhibition assay, PfDd2; format: cell-based, Plasmodium falciparum; conditions: for IC50: Plasmodium falciparum, read-out: IC50 ± SD PfDd2; for antiplasmodial activity class on PfDd2: class by IC50 criteria of b51, Dd2 strain only
Experimental: (§1) The chloroquine-sensitive Pf3D7-(MRA-102) and chloroquine-resistant PfDd2-(MRA-150) P. falciparum strains were maintained as previously described in fresh O^+ human red blood cells at 4% haematocrit in complete RPMI 1640 medium [500 mL RPMI 1640 (Gibco, UK) supplemented with 25 mM HEPES (Gibco, UK), […] (Gibco, USA), 1X hypoxanthine (Gibco, USA) and […] gentamicin (Gibco, China)] and incubating at 37 °C in a humidified atmosphere with 5% CO2. The medium was renewed daily to propagate the culture. Giemsa-stained thin blood smears were examined microscopically under immersion oil to monitor cell-cycle transition and parasitemia evolution. O^+ human red blood cells were obtained from a consent volunteer donor (Supplementary material).
(§2) Before each experiment, synchronized ring-stage parasite were obtained by 5% sorbitol (w/v) treatment with respect to Lambros and Vanderberg, 1979 [12]. It is crucial to note that, using cultures over mixed stage cultures can enable the test molecules to interact with all three stages (ring, trophozoite, and schizont) of the 48 h long life cycle of P. falciparum in culture.
(§3) A drug sensitivity assay was carried out in 96-well microtitration plates using a SYBR green I-based fluorescence assay. This assay is specifically based on the ability of SYBR green to give strong fluorescence only in the presence of parasite DNA during cell proliferation.
(§4) Shortly, sorbitol-synchronized ring stage parasites (hematocrit: 1%, parasitemia: 2%, 90 μl) under normal culture conditions were incubated in the presence of prediluted extracts, fractions, isolated compounds and reference drug (10 μL) followed by incubation at 37℃ for 72 h. After incubation, 100 μL of SYBR Green I buffer [6 μL of 10,000 × SYBR Green I (Invitrogen) + 600 μL of Red Blood Cells lysis buffer {Tris (25 mM; pH 7.5)} + 360 μL of EDTA (7.5 mM) + 19,2 μL of parasites lysis solution {saponin (0.012%; wt/vol)} and 28,8 μL of Triton X-100 (0.08%; vol/vol)}] was added to each well, mixed twice gently with a multichannel pipette and incubated in the dark at 37℃ for 1 h. Fluorescence was measured using a TECAN M 200 Microplate reader with excitation and emission at 485 and 538 nm, respectively. The fluorescence counts were plotted against the logarithm of the sample concentration and the 50% inhibitory concentration (IC50) was determined by analysis of dose–response curves using GraphPad Prism 5.0. Experiments were performed in duplicate.

[3] = test system: chloroquine-sensitive Pf3D7 (MRA-102) P. falciparum strain; assay: SYBR green I-based fluorescence P. falciparum growth inhibition assay, Pf3D7; format: cell-based; conditions: Plasmodium falciparum, read-out: IC50 ± SD Pf3D7
Experimental: as §1, §2, §3, §4

[4] = test system: P. falciparum 3D7 and Dd2 strains; assay: SYBR green antiplasmodial assay, results stated for both strains together; format: cell-based, Plasmodium falciparum; conditions: for Resistance Index (RI): PfDd2 versus Pf3D7; for antiplasmodial activity class on both Pf3D7 and PfDd2: class by IC50 criteria of b51
Excerpt: The medium was renewed daily to propagate the culture. Giemsa-stained thin blood smears were examined microscopically under immersion oil to monitor cell-cycle transition and parasitemia evolution. O^+ human red blood cells were obtained from a consent volunteer donor (Supplementary material).
as §2, §3, §4

[5] = test system: chloroquine-resistant (Dd2) strain of P. falciparum; conditions: Zofou and colleagues (2013) ref 9; cited from earlier work
[6] = Raw cells, 48 h, resazurin, read-out: CC50
[7] = SYBr Green based assay, 72 h, multidrug-resistant strain
[8] = SYBr Green based assay, 72 h, chloroquine-sensitive strain
[9] = reference drugs, unit nM printed with the name

In the case of `O=C(O)c1ccc(O)c(O)c1` [compound 6, 3,4-dihydroxybenzoic acid], the CC50 at 48 h [1, 6] is reported as over 100 µg/mL, the IC50 ([2]; 72 h) is reported as 17.09 ± 0.06 µg/mL and the “antiplasmodial activity class on PfDd2” value [2] is reported as “moderate (10 < IC50 ≤ 20 μg/mL: moderate activity)”. The IC50 ([3]; 72 h) was over 25 µg/mL.

In the case of `CC1(C)CC[C@]2(C)CC[C@]3(C)C(=CC[C@@H]4[C@@]5(C)CC[C@H](O)C(C)(C)[C@@H]5CC[C@]43C)[C@@H]2C1` [compound 12, β-amyrin], the IC50 [2, 7] is reported as over 25 µg/mL and the IC50 [3, 8] is reported as over 25 µg/mL.

`CC(=O)OCC(Cc1ccccc1)NC(=O)C(Cc1ccccc1)NC(=O)c1ccccc1` (centres unmarked) [compound 9, Auranthiamide acetate] gave a CC50 at 48 h [1] of over 100 µg/mL, an IC50 [2, 7] of over 25 µg/mL and an IC50 [3, 8] of over 25 µg/mL.

With `COc1cc(O)c2c(=O)c3c(C)cc(O)cc3oc2c1` [compound 2, Griseoxanthone C] the CC50 at 48 h [1, 6] was over 100 µg/mL, the IC50 ([2]; 72 h) was over 25 µg/mL and the IC50 ([3]; 72 h) was over 25 µg/mL.

`COc1c(O)cc2c(=O)oc3c(OC)c(O)cc4c(=O)oc1c2c34` [compound 3, 3,3′-O-dimethylellagic acid] showed a CC50 at 48 h [1] of over 100 µg/mL, an IC50 [2, 7] of 1.36 ± 0.14 µg/mL and an IC50 [3, 8] of 1.17 ± 0.04 µg/mL. The “Resistance Index (RI)” value [4] was 1.16 and the “antiplasmodial activity class on both Pf3D7 and PfDd2” value [4] was “pronounced (IC50 ≤ 5 μg/mL: pronounced activity)”.

Work on `CCCCCCCCCCCCCCCCCCCCCCCC(=O)OCC(O)CO` (centres unmarked) [compound 8, Glyceryl-1-tetracosanoate] yielded a CC50 at 48 h [1] of over 100 µg/mL, an IC50 [2, 7] of over 25 µg/mL and an IC50 [3, 8] of over 25 µg/mL.

Work on `CCOC(=O)c1cc(O)c(O)c(O)c1` [compound 10, Ethyl gallate] yielded a CC50 at 48 h [1] of over 100 µg/mL, an IC50 [2, 7] of 2.86 ± 0.07 µg/mL and an IC50 [3, 8] of 1.15 ± 0.1 µg/mL. For the same molecule, the “Resistance Index (RI)” value [4] was 2.48 and the “antiplasmodial activity class on both Pf3D7 and PfDd2” value [4] was “pronounced (IC50 ≤ 5 μg/mL: pronounced activity)”.

`C[C@@H]1CC[C@H]2[C@@H](C)C(=O)O[C@@H]3O[C@@]4(C)CC[C@@H]1[C@]32OO4` [Artemisinin, reference compound] gave an IC50 [2, 9] of 18.9 ± 0.13 nM and an IC50 [3, 9] of 14.66 ± 0.11 nM.

In the case of `COC(=O)c1cc(O)c(O)c(O)c1` [DES4, methyl 3,4,5-trihydroxybenzoate], the “IC50 Dd2” value [5] is given as 0.56 µg/mL (≈ 3.04 µM).

For `CCN(CC)CCCC(C)Nc1ccnc2cc(Cl)ccc12` (centres unmarked) [Chloroquine, reference compound], the IC50 [2] was 133 ± 0.16 nM and the IC50 [3] was 4.36 ± 0.53 nM.

With `COc1cc2c(=O)oc3c(OC)c(O)cc4c(=O)oc(c1OC)c2c34` [compound 4, 3,3′,4-tri-O-methylellagic acid] the CC50 at 48 h [1] was over 100 µg/mL, the IC50 [2, 7] was 0.63 ± 0.27 µg/mL and the IC50 [3, 8] was over 25 µg/mL.

`COc1c(O)cc2c(=O)oc3c(OC)c(OC4OCC(O)C(OC(=O)c5cc(O)c(O)c(O)c5)C4O)cc4c(=O)oc1c2c34` [compound 5, 3,3″-di-O-methylellagic acid 4-O-(3″-galloyl)-β-D-xylopyranoside] showed a CC50 at 48 h [1] of over 100 µg/mL, an IC50 [2, 7] of 1.76 ± 0.14 µg/mL and an IC50 [3, 8] of 1.86 ± 0.18 µg/mL. The “Resistance Index (RI)” value [4] was 1.12.

Molecule `CC(=O)O[C@H]1CC[C@]2(C)[C@H]3CC=C4[C@@H]5CC(C)(C)CC[C@]5(C)CC[C@@]4(C)[C@]3(C)CC[C@H]2C1(C)C` [compound 11, β-amyrin acetate] has a CC50 at 48 h [1] of over 100 µg/mL, an IC50 [2, 7] of over 25 µg/mL and an IC50 [3, 8] of over 25 µg/mL.

In the case of `C/C(=C/CCC(C)C1CCC2(C)C3=CCC4C(C)(C)C(=O)CCC4(C)C3CCC12C)C(=O)O` (centres unmarked) [compound 13, 3-oxo-lanosta-7,24-Z-dien-26-oid acid], the CC50 at 48 h ([1]; RAW 264.7 macrophage cells, Raw cells, 48 h, resazurin, read-out: CC50) is reported as over 100 µg/mL, the IC50 [2, 7] is reported as 14.21 ± 0.11 µg/mL and the “antiplasmodial activity class on PfDd2” value [2] is reported as “moderate (10 < IC50 ≤ 20 μg/mL: moderate activity)”. For the same molecule, the IC50 [3, 8] was over 25 µg/mL.

Molecule `CCCCCC(=O)Cc1cc(OC)cc(O)c1C(=O)Oc1cc(CCCCC)c(C(=O)O)c(OC)c1` [compound 7, Confluentic acid] has a CC50 at 48 h [1] of over 100 µg/mL, an IC50 [2, 7] of over 25 µg/mL and an IC50 [3, 8] of over 25 µg/mL.
